Data from patent publication USRE47245E1, “Pro-angiogenic peptides and uses thereof” (Susavion Biosciences, Inc., priority 2006, dated 2019).
Where no end group is shown, it is not given here.

Legend:
[1] = system: macrophages in PBMC cultures; assay: Stimulation of phagocytosis: macrophages engulfing microspheres opsonized with anti-HIV antibodies; assay type: cell-based, human; conditions: PBMC cultures pretreated; control cultures 0 to 3 beads
Protocol: The activity of the peptides to stimulate phagocytosis was assessed by the ability of macrophages to engulf microspheres opsonized with anti-HIV antibodies. A biotin-tagged peptide epitope of a surface protein of HIV-1 was bound to streptavidin on the surface of the beads. An antibody preparation that was raised against this epitope was then bound to the HIV peptide. The beads were then washed and presented to PBMC cultures pretreated with peptides. Macrophages in cultures not treated with peptides had little, if any, phagocytic activity. In multiple control cultures, the number of beads within a macrophage-like cell ranged from 0 to 3. In the cultures treated with peptide constructs containing four copies of the peptide sequences WNSTL (SEQ ID NO:1), NQHTPR (SEQ ID NO:2), or VQATQS (SEQ ID NO:8), an average of 10 beads were counted in each phagocytic cell, with no substantial difference between peptide constructs.

[2] = system: peripheral blood mononuclear cells (PBMCs); assay: Regulation of cytokine release: cytokine antibody array on medium of PBMC cultures; assay type: cell-based, human; conditions: for relative IL-6 concentration: in one experiment, untreated control 98
Protocol: To determine whether the peptides regulate induction or inhibition of release of cytokines, cultured peripheral blood mononuclear cells (PBMCs) were treated with one peptide embodiment of the invention and, after 4 hour incubation, the medium was collected and assayed for changes in the amounts of 40 different cytokines. The peptide construct containing four copies of WNSTL (SEQ ID NO:1), illustrated in FIG. 2A, was added at a concentration of 100 nM in each of the assays. The PBMC cultures were established with cells from Cellular Technology, Ltd. (Shaker Heights, Ohio). Approximately 3 million cells of frozen human PBMCs were thawed at 37° C. and transferred to a 50 mL conical tube where 8 mL of wash medium were added slowly. Then an additional 8 mL were added and swirled to mix. The cells were then centrifuged at 330 g for 10 min, the supernatant was removed and the pellet was resuspended in 10 mL wash medium and centrifuged as above. The washed cells were then resuspended in RPMI 1640 medium containing 10% FBS to about 6 million cells per mL and 100 μL of the suspension were added into each well of a 96-well microtiter plate and incubated overnight at 37° C. in humidified 5% CO2. After 24 hr, the medium was replaced with 200 μL fresh RPMI 1640 medium containing 10% FBS and incubated at 37° C. in humidified 5% CO2 for 2 days. For the data shown in TABLE 1, an aliquot of the peptide construct was added to samples in duplicate at a final concentration of 5 nM or 100 nM and incubated at 37° C. in humidified 5% CO2 for 4 hr. For other experiments (data not included), the incubation was continued for 24 hr. The medium was then removed and stored at […]. The samples were analyzed for production of cytokines. One set of control cells was not treated with an experimental agent. A second set of control cells was treated with LPS, the agent commonly used to induce production of a variety of inflammatory cytokines.
Assays of cytokine levels in samples of culture media were performed using methods developed by RayBiotech, Inc. (Norcross, Ga.). In this technology, membrane arrays of antibodies against cytokines were incubated with samples of media. After washing, the array was incubated with a cocktail of all antibodies tagged with biotin. The membrane was then washed free of unbound antibodies and incubated with streptavidin labeled with a fluorescent dye. After a final wash, the membrane arrays were read in a fluorescence detector and the intensities of the spots quantitated to obtain relative values.
One set of control samples was not treated with peptide and a second set of control samples was treated with lipopolysaccharide (LPS) in the absence of the peptide construct. The structure of the construct is illustrated in FIG. 2A. […] The decrease in IL-8 concentration in the peptide-treated sample, as compared with the amount of IL-8 in the sample treated with the proto-typical inflammatory agent LPS, is particularly notable. […] The increase in the proangiogenic PDGF-BB and the decrease in the inflammatory IL-8, without concomitant stimulation of inflammation, are of particular importance with respect to wound healing. […]

[3] = system: 786-0 human renal cell adenocarcinoma cell line; assay: Pro-angiogenic activity: growth of xenograft tumor in nude mouse; assay type: in vivo, nude mouse (nu/nu); conditions: 0.05 nmole/gm subcutaneously on alternate days; tumor weight estimated from volume
Protocol: Tumors require vascularization to obtain nutrients to support growth. Therefore, stimulation of growth of a tumor in response to administration of a construct of this invention is an indication of angiogenesis. For this example, a xenograph model system with the nude mouse (nu/nu) was used to determine the effect of peptide on growth of 786-0 human renal cell adenocarcinoma cell line injected into the flank of a mouse so as to induce a tumor. After the tumor was established, peptide was injected subcutaneously on alternate days. The weight of the tumor was estimated by calculation of the volume.
FIG. 4 illustrates data resulting from assays for pro-angiogenic activity for one embodiment of the invention. […] The peptide was also assayed in combination with Sorafenib, an anti-angiogenic drug.

[4] = PBMCs in serum, 4 hr, construct 100 nM

Substance: VQATQS: construct containing four copies of core sequence VQATQS (also: four copies, branched construct)
- average beads counted in each phagocytic cell [1]: 10 beads
- Relative concentration of Eotaxin-2 [2, 4]: 401
- Relative concentration of I-309 [2, 4]: 101
- Relative concentration of IL-4 [2, 4]: 64
- Relative concentration of IL-6 [2, 4]: 167
- Relative concentration of IL-10 [2, 4]: 67
- Relative concentration of IL-12p40 [2, 4]: 74
- Relative concentration of IL-12p70 [2, 4]: 112
- Relative concentration of IL-15 [2, 4]: 134
- Relative concentration of IL-16 [2, 4]: 10
- Relative concentration of IL-17 [2, 4]: 21
- Relative concentration of IL-21 [2, 4]: 90
- Relative concentration of IP-10 [2, 4]: 334
- Relative concentration of M-CSF [2, 4]: 90
- Relative concentration of MCP-1 [2, 4]: 1,966
- Relative concentration of PDGF-BB [2, 4]: 83
- Relative concentration of TGF-β1 [2, 4]: 83
- Relative concentration of TIMP-2 [2, 4]: 175
- Relative concentration of TNF-α [2, 4]: 98
- Relative concentration of TNF-β [2, 4]: 91
- Relative concentration of sTNF RI [2, 4]: 75
- Relative concentration of sTNF RII [2, 4]: 20

Substance: VSNQH: construct containing four copies of core sequence VSNQH (also: four copies of core sequence, branched construct)
- Relative concentration of Eotaxin [2, 4]: 47
- Relative concentration of Eotaxin-2 [2, 4]: 470
- Relative concentration of GM-CSF [2, 4]: 96
- Relative concentration of ICAM-1 [2, 4]: 70
- Relative concentration of IFN-γ [2, 4]: 170
- Relative concentration of IL-1α [2, 4]: 322
- Relative concentration of IL-12p40 [2, 4]: 52
- Relative concentration of IL-12p70 [2, 4]: 117
- Relative concentration of IL-15 [2, 4]: 137
- Relative concentration of IL-17 [2, 4]: 21
- Relative concentration of IL-21 [2, 4]: 130
- Relative concentration of IP-10 [2, 4]: 377
- Relative concentration of MCP-2 [2, 4]: 97
- Relative concentration of MIG [2, 4]: 94
- Relative concentration of PDGF-BB [2, 4]: 82
- Relative concentration of TIMP-2 [2, 4]: 285
- Relative concentration of TNF-α [2, 4]: 138
- Relative concentration of TNF-β [2, 4]: 93

Substance: WNSTL: branched construct: four copies of core sequence WNSTL, each via GGGS linker on tri-lysine framework, C-terminal amide (also: four copies, each via GGGS linker on tri-lysine framework, C-terminal amide of construct)
- average beads counted in each phagocytic cell [1]: 10 beads
- decrease in concentration of several cytokines as compared to untreated control samples ([2]; 4 hr): more than a two-fold decrease
- Relative concentration of Eotaxin-2 [2, 4]: 109
- Relative concentration of GCSF [2, 4]: 50
- Relative concentration of ICAM-1 [2, 4]: 44
- Relative concentration of IFN-γ [2, 4]: 103
- Relative concentration of IL-1β [2, 4]: 120
- Relative concentration of IL-4 [2, 4]: 97
- Relative concentration of IL-6sR [2, 4]: 32
- Relative concentration of IL-7 [2, 4]: 93
- Relative concentration of IL-8 [2, 4]: 144
- Relative concentration of IL-10 [2, 4]: 43
- Relative concentration of IL-11 [2, 4]: 49
- Relative concentration of IL-12p40 [2, 4]: 228
- Relative concentration of IL-12p70 [2, 4]: 131
- Relative concentration of MCP-1 [2, 4]: 968
- Relative concentration of PDGF-BB [2, 4]: 159
- Relative concentration of RANTES [2, 4]: 145
- Relative concentration of TIMP-2 [2, 4]: 25
- Relative concentration of sTNF RI [2, 4]: 78
- cytokines induced to higher concentrations: PDGF-BB, IL-1β, IL-4, IL-1, IL-12 and RANTES ([2]; compared to untreated controls, 4 hr): more than two-fold higher
- relative IL-6 concentration [2]: 93
- growth of the tumor enhanced over the control, factor [3]: 1.7

Substance: lipopolysaccharide [LPS, reference compound]
- Relative concentration of IL-2 ([2]; PBMCs in serum, 4 hr): 90
- Relative concentration of IL-3 ([2]; PBMCs in serum, 4 hr): 132
- Relative concentration of IL-13 ([2]; PBMCs in serum, 4 hr): 125
- Relative concentration of MIP-1a ([2]; PBMCs in serum, 4 hr): 237
- Relative concentration of MIP-1d ([2]; PBMCs in serum, 4 hr): 38
- change in the amount of the inflammatory cytokine IL-6 compared to untreated control samples ([2]; PBMCs in serum, 4 hr): significantly elevated
- Relative concentration of Eotaxin [2, 4]: 31
- Relative concentration of Eotaxin-2 [2, 4]: 469
- Relative concentration of GCSF [2, 4]: 120
- Relative concentration of GM-CSF [2, 4]: 106
- Relative concentration of I-309 [2, 4]: 39
- Relative concentration of ICAM-1 [2, 4]: 53
- Relative concentration of IFN-γ [2, 4]: 158
- Relative concentration of IL-1α [2, 4]: 246
- Relative concentration of IL-1β [2, 4]: 47
- Relative concentration of IL-4 [2, 4]: 49
- Relative concentration of IL-6 [2, 4]: 4,375
- Relative concentration of IL-6sR [2, 4]: 52
- Relative concentration of IL-7 [2, 4]: 178
- Relative concentration of IL-8 [2, 4]: 840
- Relative concentration of IL-10 [2, 4]: 218
- Relative concentration of IL-11 [2, 4]: 26
- Relative concentration of IL-12p40 [2, 4]: 46
- Relative concentration of IL-12p70 [2, 4]: 89
- Relative concentration of IL-15 [2, 4]: 104
- Relative concentration of IL-16 [2, 4]: 2
- Relative concentration of IL-17 [2, 4]: 10
- Relative concentration of IP-10 [2, 4]: 268
- Relative concentration of M-CSF [2, 4]: 59
- Relative concentration of MCP-2 [2, 4]: 177
- Relative concentration of MIG [2, 4]: 66
- Relative concentration of MIP-1b [2, 4]: 1,828
- Relative concentration of PDGF-BB [2, 4]: 56
- Relative concentration of RANTES [2, 4]: 114
- Relative concentration of TGF-β1 [2, 4]: 62
- Relative concentration of TIMP-2 [2, 4]: 92
- Relative concentration of TNF-α [2, 4]: 93
- Relative concentration of TNF-β [2, 4]: 95
- Relative concentration of sTNF RI [2, 4]: 58
- Relative concentration of sTNF RII [2, 4]: 26
- relative IL-6 concentration [2]: 5,879
